Structures can show the parent of a compound that is named as a salt. Where two headings read alike, the source gives them in different places.
Tests used:
MDBK line = assay: MTT Cell Proliferation Assay, MDBK cells; type: cell-based, bovine
From the text: (§1) The following example describes the MTT Cell Proliferation Assay.
(§2) The MTT Cell Proliferation Assay is a colorimetric assay system that measures the reduction of the tetrazolium salt MTT (3-(4,5-dimethylthiazol-2-yl)-2,5-diphenyltetrazolium bromide) into insoluble formazan crystals, produced by the mitochondria of viable cells. […] The color can then be quantified by spectrophotometric means. Among the applications for the method are drug sensitivity, cytotoxicity, response to growth factors, and cell activation. The reduction of tetrazolium salts is now recognized as a safe, accurate alternative to radiometric testing.
(§3) Two replicates on each cell plate and 2 duplicate plates gave 4 individual replicates of each concentration, in each cell line. Concentrations were diluted in 100% DMSO from 25 mM stocks.
(§4) Twelve 96 well plates of each cell line were plated. Plating was done by dislodging cells as in passage protocol, counting on a hemocytometer, re-suspending in standard growth media, and plating using a multichannel pippetor.
(§5) 16 μl of 25 mM stock+34 μl DMSO=8 mM starting concentrations, and serial diluted as with test compounds in same plate. […] Two replicates of each concentrations was run on each cell plate. All compound addition and cell treatments were done using aseptic technique under a laminar flow aseptic hood.
(§6) Control: 0.5% DMSO in treatment media was used as the control.
(§7) MTT dye (Thiazolyl Blue Tetrazolium Bromide, Sigma cat #M5655) stock was prepared in bulk and stored at 4° C. for use: 5 mgs/ml sterile PDS, shielded from light. 4 ul of this stock per 100 uls treatment media per well was used.
(§8) Plates were incubated overnight prior to treatment, with treatment day=Day 0. Compound treatments were prepared prior to washing cells to minimize time cells were dry at room temperature after final aspiration. Compounds were diluted in 100% DMSO in 96 well polypropylene plates: 40 μl 25 mM stock+10 μl DMSO=20 mM; 20 μl of 20 mM+30 μl DMSO=8 mM; 20 μl of 8 mM+30 μl DMSO=3.2 mM; 20 μl of 3.2 mM+30 μl DMSO=1.3 mM; 20 μl of 1.3 mM+30 μl DMSO=0.51 mM.
(§9) 5.0 μl/ml were added to treatment media, in sterile, 2.2 ml deep well plates=0.5% dmso final. Ten μl of each dmso concentration was added to 2.0 ml of treatment media and then mixed using a 1200 μl multichannel pipettor. Cell plates were treated from the deep well plates. Treatment media was standard growth media containing 0.5% FBS and standard additions. This reduced FBS concentration allowed for a slower growth rate in cells.
(§10) Media was aspirated from cell plates, and washed with 200 μl/well sterile PBS. Aspirated PBS wash, and cell plates were treated with 200 μl of compound/treatment media per well, and incubated at 37° C., 5% CO2 for 3 days.
(§11) Prior to harvesting, visual observations were made under an inverted microscope. Plates were harvested by: aspirating the growth media; adding back MTT dye/100 μl treatment media; and incubating plates at 37° C. for 1 hour. MTT dye was aspirated. 100 μl/well dmso was added, and then shaken on a Bellco plate shaker for 5 minutes, at 4.5 setting.
(§12) Plates were read in a Tecan Sunrize UV plate reader, at 560 nm. Settings: Read mode, Outside Normal 2 sec; Shake settle time 3 sec. Data is reported as % inhibition, calculated for individual plates using control values from that plate.

EGFR = target: T1, EGFR (Homo sapiens, UniProt P00533); assay: EGFR in-cell Western (ICW) screening protocol (EGFR inhibition assay); type: cell-based; design: ICW 1 / ICW 2 / ICW Avg: unit not given here; details: for ICW Avg / ICW 1 / ICW 2: ICW assay; for ICW Avg: average of runs 1 and 2; for ICW 1: run 1; for ICW 2: run 2; for ICW assay: Table 10
T1 construct: host or cells: A431
Procedure, shortened: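 In-cell Western read-out: fixed A431 cells were co-stained for total EGFR and phospho-EGFR (Tyr1173; some runs Tyr1045). Before fixation, cells were serum-starved for 2 h, exposed to compound for 4 h, then given EGF for 10 min, usually at 10 ng/ml final (6.6 or 12.5 ng/ml in some runs).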

[1] = tested on: epithelial carcinoma A431 cell line; assay: MTT Cell Proliferation Assay, A431 cells; type: cell-based; details: for MTT Assay IC50(A431/MDBK): ratio in parentheses: ratio MDBK IC50 / A431 IC50 (selectivity)
From the text: as §1, §2, §3, §4, §5, §6, §7, §8, §9, §10, §11, §12

[2] = Bos taurus, MDBK, MDBK cells, second value of cell, read-out: MTT Assay IC50(A431/MDBK): MDBK
[3] = Homo sapiens, A-431, A431 cells, first value of cell, read-out: MTT Assay IC50(A431/MDBK): A431
[4] = second value of 'a/b (c)', taken as MDBK cells, read-out: MTT Screen, second value of cell
[5] = first value of 'a/b (c)', taken as A431 cells, read-out: MTT Screen, first value of cell
[6] = Homo sapiens, A-431, first value of 'a/b (c)', taken as A431 cells, read-out: MTT Screen, first value of cell
[7] = Bos taurus, MDBK, 72 h, Table 10, second of x/y(ratio): MDBK, three day treatment, unit not printed (doses in μM), read-out: MTT assay (second value)
[8] = % Inhibition of EGF dependent EGFR phosphorylation in A431 cells, compound 125 μM in assay
[9] = Homo sapiens, A-431, 72 h, Table 10, first of x/y(ratio): A431, three day treatment, unit not printed (doses in μM), read-out: MTT assay (first value)
[10] = Bos taurus, MDBK, second value of 'a/b (c)', taken as MDBK cells, read-out: MTT Screen, second value of cell

T1 sequence (P00533 25-1210): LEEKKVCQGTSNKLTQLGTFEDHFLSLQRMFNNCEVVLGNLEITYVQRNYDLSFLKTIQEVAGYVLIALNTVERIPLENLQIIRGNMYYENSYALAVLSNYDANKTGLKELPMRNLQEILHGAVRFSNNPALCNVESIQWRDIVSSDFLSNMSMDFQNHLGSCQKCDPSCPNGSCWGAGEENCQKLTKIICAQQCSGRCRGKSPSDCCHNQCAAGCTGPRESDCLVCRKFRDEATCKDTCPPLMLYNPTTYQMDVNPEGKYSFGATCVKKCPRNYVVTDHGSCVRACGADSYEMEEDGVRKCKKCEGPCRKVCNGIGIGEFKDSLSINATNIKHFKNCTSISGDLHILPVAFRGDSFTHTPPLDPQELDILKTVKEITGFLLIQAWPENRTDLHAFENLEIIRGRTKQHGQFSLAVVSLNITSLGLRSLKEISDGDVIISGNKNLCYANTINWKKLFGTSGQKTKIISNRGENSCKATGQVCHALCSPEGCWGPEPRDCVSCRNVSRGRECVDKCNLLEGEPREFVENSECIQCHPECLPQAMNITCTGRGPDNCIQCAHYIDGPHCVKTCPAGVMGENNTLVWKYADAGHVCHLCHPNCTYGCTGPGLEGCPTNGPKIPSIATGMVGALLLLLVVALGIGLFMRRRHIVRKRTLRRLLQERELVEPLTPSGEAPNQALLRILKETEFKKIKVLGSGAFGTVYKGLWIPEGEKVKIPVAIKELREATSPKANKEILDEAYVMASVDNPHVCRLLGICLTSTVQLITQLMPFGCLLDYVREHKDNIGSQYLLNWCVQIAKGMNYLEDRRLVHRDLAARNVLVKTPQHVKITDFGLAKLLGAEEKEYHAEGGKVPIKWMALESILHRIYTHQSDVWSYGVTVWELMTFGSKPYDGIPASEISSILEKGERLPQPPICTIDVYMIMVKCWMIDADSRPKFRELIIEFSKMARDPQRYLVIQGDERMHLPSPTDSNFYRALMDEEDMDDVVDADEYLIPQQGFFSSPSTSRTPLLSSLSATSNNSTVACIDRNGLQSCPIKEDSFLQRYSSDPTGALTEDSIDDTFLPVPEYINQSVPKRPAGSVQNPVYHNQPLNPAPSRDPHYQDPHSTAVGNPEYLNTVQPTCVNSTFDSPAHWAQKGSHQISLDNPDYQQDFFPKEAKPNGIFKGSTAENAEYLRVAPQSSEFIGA

ICW Avg (EGFR)	ICW 1 (EGFR)	ICW 2 (EGFR)	IC50 [1, 3]	MTT Assay IC50(A431/MDBK): ratio in parentheses [1]	SMILES	IC50 (MDBK line; [2])	further results
34.03	28.51	39.54	15.9 µM	0.58	C=CCc1c(C)nc(Nc2nc(C)c3cc(CC)ccc3n2)[nH]c1=O [compound 12739]	9.17 µM	–
33.52	43.74	23.30	39.4 µM	0.53	CCCc1c(C)nc(Nc2nc(C)c3cccc(OC)c3n2)[nH]c1=O [11773 + TFA]	21 µM	–
40.69	29.69	51.69	10.7 µM	0.79	CCCc1cc(=O)[nH]c(Nc2nc(C)c3ccc(C)cc3n2)n1 [compound 12674]	8.41 µM	–
43.72	50.06	37.38	3.45 µM	3.27	COc1ccc2nc(Nc3nc(CSc4nnnn4-c4ccccc4)cc(=O)[nH]3)nc(C)c2c1 [compound 11448]	11.8 µM	–
–	–	–	–	–	O=C(Cc1ccccc1)NC(=S)Nc1ccc(S(=O)(=O)Nc2ccccc2)cc1 [AD4-11416]	–	IC50 (MDBK line; [4]): 13.5 µM; ICW Screen (ICW Inhibition) (EGFR): 53.517; IC50 [1, 5]: 15.4 µM
56.08	58.11	54.06	1.29 µM	–	Cc1ccc2nc(Nc3nc(=O)cc(-c4ccccc4)[nH]3)nc(C)c2c1 [compound 11601]	2.62 µM	IC50 (MDBK line; Bos taurus, MDBK, MDBK cells, normalized, read-out: MTT Assay IC50 (normalized): MDBK): 2.61 µM; IC50 (MDBK line; Bos taurus, MDBK, follow-up MTT, MDBK cells, second value, read-out: MTT Follow-up: MDBK): 48.6 µM; IC50 ([1]; Homo sapiens, A-431, A431 cells, normalized, read-out: MTT Assay IC50 (normalized): A431): 0.738 µM; IC50 ([1]; Homo sapiens, A-431, follow-up MTT, A431 cells, first value, read-out: MTT Follow-up: A431): 3.67 µM; MTT Follow-up: ratio in parentheses ([1]; follow-up MTT, ratio MDBK/A431): 13.23
–	–	–	–	–	COc1cc(NS(=O)(=O)c2ccc(NC(=S)NC(=O)/C=C/c3ccccc3)cc2)nc(OC)n1 [AD4-11369]	–	IC50 (MDBK line; [4]): 47.2 µM; ICW Screen (ICW Inhibition) (EGFR): 43.546; IC50 [1, 6]: 48.6 µM
–	–	–	–	–	O=S(=O)(Nc1ccc(Cl)cc1)c1ccc(NC(=S)Nc2ccccc2C(F)(F)F)cc1 [AD4-12435]	–	IC50 (MDBK line; [7]): 6.15 µM; ICW assay (EGFR; [8]): 41.4281; IC50 [1, 9]: 6.67 µM
–	–	–	–	–	CN1CCN(S(=O)(=O)c2ccc(NC(=S)NC(=O)/C=C/c3ccc(F)cc3)cc2)CC1 [AD4-12107]	–	MTT Screen, second value of cell (MDBK line; second value of 'a/b (c)', taken as MDBK cells): non- conver- gent; ICW Screen (ICW Inhibition) (EGFR): 41.933; IC50 [1, 6]: 14.1 µM
–	–	–	–	–	Cc1cccc(NC(=S)Nc2ccc(S(=O)(=O)Nc3cc(Cl)cc(Cl)c3)cc2)c1 [AD4-12472]	–	IC50 (MDBK line; [7]): 5.42 µM; ICW assay (EGFR; [8]): 64.2647; IC50 [1, 9]: 6.23 µM
–	–	–	–	–	O=C(NC(=S)Nc1ccc(S(=O)(=O)N2CCCCC2)cc1)C1CCC1 [AD4-12064]	–	IC50 (MDBK line; [4]): 42.7 µM; ICW Screen (ICW Inhibition) (EGFR): 34.778; IC50 [1, 5]: 47.8 µM
–	–	–	–	–	COc1cc(NS(=O)(=O)c2ccc(NC(=S)NC(=O)/C=C/c3ccccc3)cc2)nc(OC)n1 [AD4-12262]	–	IC50 (MDBK line; [4]): 43.4 µM; ICW Screen (ICW Inhibition) (EGFR): 40.146; IC50 [1, 5]: 42.9 µM
–	–	–	–	–	CCc1ccc(NC(=S)Nc2ccc(S(=O)(=O)Nc3ccccc3)cc2)cc1 [AD4-12854]	–	IC50 (MDBK line; [7]): 8.19 µM; ICW assay (EGFR; [8]): 38.7055; IC50 [1, 9]: 6.64 µM
29.16	24.41	33.91	21.8 µM	0.84	Cc1ccc2nc(Nc3nc(CSc4nc5ccccc5s4)cc(=O)[nH]3)nc(C)c2c1 [compound 11592]	18.3 µM	–
–	–	–	–	–	O=S(=O)(Nc1ccc(Cl)cc1)c1ccc(NC(=S)Nc2ccc(Br)cc2)cc1 [AD4-12504]	–	IC50 (MDBK line; [7]): 15.6 µM; ICW assay (EGFR; [8]): 118.46; IC50 [1, 9]: 11.1 µM
–	–	–	–	–	CCC(C)c1ccc(NC(=S)Nc2ccc(S(=O)(=O)Nc3c(C)cc(C)cc3C)cc2)cc1 (stereo not shown) [AD4-12403]	–	IC50 (MDBK line; [7]): 5.3 µM; ICW assay (EGFR; [8]): 50.7196; IC50 [1, 9]: 4.03 µM
–	–	–	–	–	CCOc1ccccc1NC(=S)Nc1ccc(S(=O)(=O)Nc2ccc(Cl)cc2)cc1 [AD4-12521]	–	IC50 (MDBK line; [7]): 6.54 µM; ICW assay (EGFR; [8]): 45.7824; IC50 [1, 9]: 6.99 µM
–	–	–	–	–	COc1ccc(NC(=S)Nc2ccc(S(=O)(=O)Nc3c(C)cc(C)cc3C)cc2)cc1OC [AD4-11428]	–	IC50 (MDBK line; [7]): 15.5 µM; ICW assay (EGFR; [8]): 29.8673; IC50 [1, 9]: 20.8 µM
–	–	–	–	–	CC(=O)NC(=S)Nc1ccc(S(=O)(=O)N2CCc3ccccc32)cc1 [AD4-10623]	–	IC50 (MDBK line; [10]): 38.3 µM; ICW Screen (ICW Inhibition) (EGFR): 46.185; IC50 [1, 6]: 25.8 µM
25.68	29.51	21.86	33.5 µM	0.43	COc1ccccc1-c1cc(=O)[nH]c(Nc2nc(C)c3cc(C)c(C)cc3n2)n1 [11746 + TFA]	14.4 µM	–
57.18	40.36	74.00	9.01 µM	0.76	Cc1ccc2c(O)nc(Nc3nc(C)cc(-c4ccccc4)n3)nc2c1 [12693 + TFA]	6.88 µM	–
–	–	–	–	–	Cc1c(O)ccc2c(CN3CCN(Cc4ccc5c(c4)OCO5)CC3)cc(=O)oc12 [AD4-10491]	–	IC50 (MDBK line; Table 11, second of x/y(ratio): MDBK, unit not printed (doses in μM), read-out: MTT Screen (second value)): 40.6 µM; ICW Screen (EGFR; Table 11, % Inhibition of EGF dependent EGFR phosphorylation in A431 cells, compound 125 μM in assay): 29.223; IC50 ([1]; Table 11, first of x/y(ratio): A431, unit not printed (doses in μM), read-out: MTT Screen (first value)): 22.2 µM
–	–	–	–	–	COC(=O)c1sc2cc(NC(=S)Nc3ccc(S(=O)(=O)Nc4c(C)cc(C)cc4C)cc3)ccc2c1Cl [AD4-12560]	–	IC50 (MDBK line; [7]): 5.23 µM; ICW assay (EGFR; [8]): 42.3275; IC50 [1, 9]: 8.88 µM
32.72	31.42	34.02	39.3 µM	0.28	CCc1c(C)[nH]c(Nc2nc(C)c3cc(C)c(C)cc3n2)nc1=O [11809 + TFA]	10.9 µM	–
34.32	37.65	30.99	17.6 µM	1.45	O=c1[nH]c(Nc2nc(-c3ccccc3)c3cc(Cl)ccc3n2)nc2ccccc12 [11706 + TFA]	25.4 µM	–
42.27	38.90	45.65	14.7 µM	0.43	C=CCc1c(C)nc(Nc2nc(C)c3cccc(OCC)c3n2)[nH]c1=O [compound 12737]	6.33 µM	–
–	–	–	–	–	O=C(NC(=S)Nc1ccc(S(=O)(=O)N2CCCCC2)cc1)C1CCC1 [AD4-11421]	–	IC50 (MDBK line; [10]): 43.5 µM; ICW Screen (ICW Inhibition) (EGFR): 37.181; IC50 [1, 6]: 41.5 µM

— patent publication US20140179681A1, “METHODS AND COMPOSITIONS OF TARGETED DRUG DEVELOPMENT” (priority 2010, published 2014)
